Legend:
APP = APP (Homo sapiens, UniProt P05067); experiment: Western blot of APP in iPSC-derived neurons; format: cell-based; design: endogenous in cells; host or cells: iPSC-derived neurons (AG27606-Ns, sAD2.3-Ns and others); settings: for APP-degrading activity after Bafilomycin A1 pretreatment: Baf A1 20 nM, AG27606-Ns, sAD2.3-Ns, HEK-APP695 cells; for APP-degrading activity after Bafilomycin A1 pretreatment / APP-degrading activity after MG132 pretreatment: 30 min, then compound 10 µM, 24 h; for APP-degrading activity after MG132 pretreatment: MG132 5 µM
CAPRIN1 = target: T1, CAPRIN1 (Homo sapiens, UniProt Q14444); experiment: SPR, compound onto CAPRIN1 alone; format: binding; settings: immobilized CAPRIN1
T1 construct: 10xHis (followed by a 3C site) (N); made in house; host or cells: Tni (Hi5) insect cells, baculovirus
Procedure: SPR experiments were conducted to investigate the interaction between APP695 and CAPRIN1 proteins using a Biacore T200 instrument (Cytiva). Both proteins were expressed in Tni (Hi5) insect cells and purified to homogeneity via tandem affinity and ion‐exchange. Protein purity and integrity were confirmed by SDS‐PAGE and size‐exclusion chromatography prior to analysis. All experiments were performed in a running buffer consisting of 50 mM HEPES at pH7.0, 100 mM KCl, 10% glycerol, and 0.01% (v/v) Tween‐20 supplemented with 0.1% (w/v) Sarkosyl (pH 7.4). APP695 was serially diluted in running buffer to final concentrations of 15, 5, 1, and 0.3 µM. Chip Preparation: A CM5 sensor chip (Cytiva) was activated using a 1:1 (v/v) mixture of 0.1 M N‐hydroxysuccinimide (NHS) and 0.1 M N‐ethyl‐N′‐(3‐dimethylaminopropyl) carbodiimide (EDC) to generate reactive ester groups. CAPRIN1 was diluted to 50 µg/mL in 10 mM Hepes‐KOH buffer (pH 6.0) and immobilized on the chip surface via standard amine coupling to achieve immobilization. Unreacted sites were blocked with 1 M ethanolamine‐HCl (pH 8.5). A reference flow cell was prepared similarly but without protein immobilization to control for non‐specific binding and bulk refractive index changes. Binding assay: Binding interactions were measured at 25°C with a flow rate of 30 µL/min. […]

Sequence of APP (P05067 18-695 isoform P05067-4): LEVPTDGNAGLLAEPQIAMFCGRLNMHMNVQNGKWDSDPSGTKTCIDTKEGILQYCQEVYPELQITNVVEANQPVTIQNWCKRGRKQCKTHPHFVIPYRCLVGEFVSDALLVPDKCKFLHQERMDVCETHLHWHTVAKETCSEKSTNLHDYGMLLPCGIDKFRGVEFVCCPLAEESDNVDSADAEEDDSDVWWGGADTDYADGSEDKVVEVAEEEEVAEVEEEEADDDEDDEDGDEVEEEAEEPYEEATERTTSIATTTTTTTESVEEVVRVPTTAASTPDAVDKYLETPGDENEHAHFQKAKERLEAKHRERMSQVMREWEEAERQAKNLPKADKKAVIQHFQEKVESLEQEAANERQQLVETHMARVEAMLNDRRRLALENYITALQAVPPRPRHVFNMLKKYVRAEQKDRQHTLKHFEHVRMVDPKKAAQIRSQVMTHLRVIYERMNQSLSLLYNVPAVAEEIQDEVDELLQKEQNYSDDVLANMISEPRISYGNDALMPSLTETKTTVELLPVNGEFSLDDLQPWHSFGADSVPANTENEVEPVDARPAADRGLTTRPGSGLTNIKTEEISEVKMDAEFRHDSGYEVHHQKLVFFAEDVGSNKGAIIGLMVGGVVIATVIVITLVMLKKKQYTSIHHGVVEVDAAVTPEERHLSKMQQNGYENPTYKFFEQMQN
Sequence of APP (Q14444 whole entry partner): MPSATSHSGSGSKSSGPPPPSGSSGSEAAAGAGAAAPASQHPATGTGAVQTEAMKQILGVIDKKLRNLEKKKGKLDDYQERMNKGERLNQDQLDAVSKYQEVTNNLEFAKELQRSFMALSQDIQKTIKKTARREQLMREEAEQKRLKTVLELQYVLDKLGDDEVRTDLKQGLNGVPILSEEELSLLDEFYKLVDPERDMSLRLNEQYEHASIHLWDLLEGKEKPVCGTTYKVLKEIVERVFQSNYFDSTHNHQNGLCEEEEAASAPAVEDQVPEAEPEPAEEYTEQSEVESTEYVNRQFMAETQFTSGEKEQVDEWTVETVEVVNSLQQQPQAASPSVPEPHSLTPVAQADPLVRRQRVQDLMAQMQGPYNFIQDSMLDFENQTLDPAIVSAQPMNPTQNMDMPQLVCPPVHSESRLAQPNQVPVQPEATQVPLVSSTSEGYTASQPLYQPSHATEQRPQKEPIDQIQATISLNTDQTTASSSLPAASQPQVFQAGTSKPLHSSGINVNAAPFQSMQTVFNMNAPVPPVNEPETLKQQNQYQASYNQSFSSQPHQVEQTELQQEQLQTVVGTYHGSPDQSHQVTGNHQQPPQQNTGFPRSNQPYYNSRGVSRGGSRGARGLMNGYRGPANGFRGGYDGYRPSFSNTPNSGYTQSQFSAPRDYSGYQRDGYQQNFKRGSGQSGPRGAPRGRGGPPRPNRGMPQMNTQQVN
T1 sequence (Q14444 whole entry): as the sequence (Q14444 whole entry partner) above

| SMILES | APP-degrading activity after Bafilomycin A1 pretreatment (APP) | APP-degrading activity after MG132 pretreatment (APP) | Intracellular APP (western blot) (APP; SAD2.3-Ns and AG27606-Ns, 72 h, BI 10 µM) | Interaction with CAPRIN1 alone (CAPRIN1) |
| --- | --- | --- | --- | --- |
| N#Cc1cccc(NC(=O)Nc2nc3ccc(C(=O)N4CCOCC4)cc3s2)c1 [compound 0043] | abolished | no effect | reduced intracellular APP | no noticeable interaction |
| COc1cccc(NC(=O)Nc2nc3ccc(C(=O)N4CCOCC4)cc3s2)c1 [compound 0152] | abolished | no effect | – | no noticeable interaction |

Source: PMC13534789, “Molecular Glue Degraders Enhance CAPRIN1‐Dependent Lysosomal Degradation of APP and Reduce Amyloid β in Alzheimer's Disease” (Advanced Science, 2026)
